In patent publication US10918891B2, “Cosmetic treatment method for the skin” (SYNTIVIA, priority 2016, dated 2021):
Marks after values point to notes of the source that are not given here.

Key:
[1] = system: explants of human skin (NATIVESKIN, Genoskin); experiment: Morphological study (haematoxylin and eosin) of human skin explants after repeated UVA irradiation; assay type: cell-based; details: skin explant; topical (Ia) 100 ppm; three UVA stresses 50 J/cm2; FIG. 3
Method: (§1) In these examples, the protective properties of the compound (Ia) against the damage caused to the DNA and to the extracellular matrix by repeated UVA irradiation, are measured on explants of human skin (NATIVESKIN, Genoskin).
(§2) Upon reception of the explants, the latter are topically coated with Carbopol® (Lubrizol)+DMSO for the non-UVA control (CTL without stress) and for the control with stress by UVAs (CTL UVA), and with Carbopol®+compound (Ia) at 100 ppm for the test.
(§3) Over three days, the cells are subjected to three stresses with UVAs at a rate of 50 joules per square centimetre.
(§4) The first irradiation takes place 24 hours after the treatments. The products are present before, during and after the irradiation. The control without stress is wrapped in aluminium and also placed in the irradiator.
(§5) During the irradiation, the explants inserted are disposed in a petri dish with PBS. Fresh medium (Genoskin Culture medium) is added after the irradiation.
(§6) After the third day of irradiation, the explants are cultivated for 24 hours, then collected and fixed for 48 hours in formalin (Sigma). The samples are included in paraffin and cut.
A morphological study of the skin is implemented.
The samples of explant are deparaffined, rehydrated and then they are subjected to colouration with haematoxylin and with eosin in order to observe the in-depth effect of the compound (Ia) on the skin. […]

TNFα = experiment: Gene expression of TNFα by quantitative RT-PCR in NHEK; assay type: cell-based, human; details: (Ia) 3 ppm (10^−5M), 24 hours
Method: In these examples, the expression of the messenger RNA is measured by the technique of quantitative RT-PCR (reverse transcription followed by polymerase chain reaction), after incubation in vitro of the various cell types in the absence or in the presence of compound (Ia).
This study was carried out on normal human dermal Fibroblasts (NHDF) or normal human epidermal Keratinocytes (NHEK). The compound (Ia) is tested at 10^−5M in an aqueous solution with 0.1% dimethylsulfoxide.
The cells are cultured at the concentration of 10,000 cells per well of 96-well plates, in the presence of standard culture medium according to the cell type.
The compound (Ia) is then added at the concentration (3 ppm), for 24 hours.
The supernatant is eliminated and the cells are taken up in a specific buffer for the extraction of the messenger RNA (mRNA). The mRNA is purified and reverse transcribed in the presence of a commercial reverse transcriptase.
The complementary DNA (cDNA) obtained is quantified by RT-PCR, by means of suitable primers. The rate of expression of the mRNA is normalised with 5 reference genes.
The cells used for this example are normal human keratinocytes (NHEK).

NHDF cells = experiment: DNA double-strand breaks (γ-H2AX) induced by cigarette extract in NHDF; assay type: cell-based, human; details: (Ia) 10 ppm pretreatment 24 h and treatment 24 h, cigarette extract 1/50, Control 6441, Cigarette extract 11404
Method: (§7) The cells used for this example are normal human Fibroblasts (NHDF) and normal human epidermal Keratinocytes (NHEK).
The cells are cultured at the concentration of 3000 cells per well of 96-well plates in the presence of standard culture medium for NHDF or NHEK (for 24 hours, 37° C., 5% CO2).
After pretreatment of the cells with the compound (Ia) at 10 ppm for 24 hours, the cells are treated with the cigarette extract diluted to 1/50° with or without compound (Ia) at 10 ppm for 24 hours. […].
After washing, the samples are then placed in the presence of DAPI for 10 min in order to mark the nuclei, then rinsed once again. The marked proteins are observed and quantified with an automated fluorescence microscope (ArrayScan® (Cellomics®)). The cells treated by the compound (Ia) are then compared to the untreated cells or to the cells only exposed to the cigarette extract.

[2] = system: explants of human skin (NATIVESKIN, Genoskin); experiment: γ-H2Ax immunofluorescence (DNA double-strand breaks) on human skin explants after repeated UVA irradiation; assay type: cell-based; details: skin explant, topical (Ia) 100 ppm in Carbopol, three UVA stresses 50 J/cm2
Method: as §1, §2, §3, §4
During the irradiation, the explants inserted are disposed in a petri dish with PBS. Fresh medium (Genoskin Culture medium) is added after the irradiation. […]
The sections are mounted on a slide, and observed using a microscope (Leica DM5000B). An absence of fluorescence is clearly observed for the sample treated with the compound (Ia) according to the invention, which corresponds to an absence of double-strand breaks of the DNA.
The fluorescence is quantified by means of the microscope.

ELN (Elastin) = experiment: Elastin immunofluorescence on human skin explants after repeated UVA irradiation; assay type: cell-based; details: skin explant, (Ia) 100 ppm
Method: as §1, §2, §3, §4, §5, §6
Marking of the protein elastin is carried out by immunofluorescence on a paraffin section.
The samples are prepared for the fluorescent marking. […]
The sections are mounted on a slide and the fluorescence is quantified using a microscope (Leica DM5000B).

NHEK cells = experiment: Cellular viability (WST1) of NHEK exposed to cigarette extract; assay type: cell-based, human; details: (Ia) 10 ppm pretreatment 24 h and treatment 24 h; cigarette extract diluted 1/50; WST1, 450 nm; Control 2.070, Cigarette extract 1.392
Method: as §7
A cigarette extract is prepared using a laboratory device allowing the sucking up of cigarette smoke via a suction system, and the controlled bubbling of this cigarette smoke into the solution studied, which is then filtered on a 0.22 μm filter made of Polyether sulfone (PES).
The cells are cultured at the concentration of 7000 cells per well of 96-well plates (NHDF) or 8000 cells per well (NHEK), in the presence of standard culture medium for NHDF or NHEK (for 24 h 37° C., 5% CO2).
After pretreatment of the cells with the compound (Ia) at 10 ppm for 24 h the cells are treated with the cigarette extract diluted to 1/50th in the culture medium with or without the compound (Ia) at 10 ppm for 24 h. The absorbance is read a first time at […] (Multiskan®).
Then, 10 μl of WST1 (Roche) are introduced into the medium and the cells are incubated for 3 hours.
The absorbance at 450 nm is measured after the addition of WST1 (Multiskan®) and the results obtained, in terms of cellular viability, are shown in tables 11 and 12 below. The treated cells (Cigarette extract+(Ia)) are compared to the untreated cells (Control) or to the cells having only undergone exposure to the cigarette extract (Cigarette extract).

SMILES: Cc1ncc(CO)c(CNC(=O)/C=C/c2ccc(O)c(O)c2)c1O [Compound (Ia)]
- Morphology of the skin (epidermal barrier, structure of the dermis) after UVA [1]: the epidermal barrier is preserved from the degradation by the UVAs and the structure of the dermis is preserved
- Reduction of the gene expression compared to the basal level based on 100% (TNFα) (TNFα): −45%
- Double-strand breaks of the DNA for NHDF (AU) (NHDF cells): 8752*** AU
- Cells positive for γ-H2Ax marking / total number of cells [2]: 59/1282
- Cells positive for γ-H2Ax marking based on 100% ([2]; CTL UVA 33.93%, CTL without stress 4.34%): 4.76%
- Average fluorescence intensity of the marking ELN (AU) (ELN (Elastin); CTL UVA 145.9, CTL without stress 160.4): 182.4 AU
- Cells positive for ELN based on 100% (ELN (Elastin); relative to CTL without stress, CTL UVA −9%): +14%
- Cellular viability on NHEK (Optical density) (NHEK cells): 2.589 Optical density
